Data: the supplement of paper PMC8671470

What follows are compounds tested on BV-173 (assay: cell viability (% survival relative to DMSO control, bortezomib = 0%); higher = less cytotoxic). Conditions: 1 nM; 72 h.
How it was run: (§1)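 Percent survival figures are means of duplicate wells. They were obtained by CellTiter-Glo luminescence after 10 AML and 5 CML cell lines spent 72 h at 37 °C with 5% CO2 in 384-well plates with compounds at 1, 10, 100, 1000 or 10000 nM. Vehicle was set to 100% and a 10 µM positive control to 0%.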
`O=C(O)C[C@@]1(O)C[C@@H](CCCCCCc2ccc(Cl)cc2Cl)OC1=O` was tested, and the cell viability was 102%. `O=C(NCCCCCCNC(=O)ONC1=CCCCC1)ONC1=CCCCC1` gave a cell viability of 89.4%. `O=C(C1CC1)N1CC[C@@H](C=C2NNC(=O)N2c2ccc(-c3ccc4occc4c3)cc2)C1` showed a cell viability of 97.1%. `CCCCCCCCCCCC(=O)c1c(O)c(C(=O)CCCCCCCCCCC)c(O)c(C2CC(c3ccc(O)cc3)Oc3cc(O)ccc32)c1O` (centres undefined) showed a cell viability of 119%. `NC(=O)c1cccc(-c2cccc(OC(=O)NC3CCCCC3)c2)c1` [URB-597] was tested, and the cell viability was 91%. With `O=C1O[C@H]([C@@H](O)CO)C(O)=C1O` [Vitamin C (ascorbate)] the cell viability was 94.2%.

Same assay, conditions: 10 nM; 72 h
`O=C(O)C[C@@]1(O)C[C@@H](CCCCCCc2ccc(Cl)cc2Cl)OC1=O` was tested, and the cell viability was 101%. Work on `O=C(NCCCCCCNC(=O)ONC1=CCCCC1)ONC1=CCCCC1` yielded a cell viability of 107%. For `O=C(C1CC1)N1CC[C@@H](C=C2NNC(=O)N2c2ccc(-c3ccc4occc4c3)cc2)C1`, the cell viability was 86.3%. `CCCCCCCCCCCC(=O)c1c(O)c(C(=O)CCCCCCCCCCC)c(O)c(C2CC(c3ccc(O)cc3)Oc3cc(O)ccc32)c1O` (centres undefined) gave a cell viability of 114%. In the case of `NC(=O)c1cccc(-c2cccc(OC(=O)NC3CCCCC3)c2)c1` [URB-597], the cell viability is reported as 104%. For `O=C1O[C@H]([C@@H](O)CO)C(O)=C1O` [Vitamin C (ascorbate)], the cell viability was 113%.

Same assay, conditions: 100 nM; 72 h
Compound `O=C(O)C[C@@]1(O)C[C@@H](CCCCCCc2ccc(Cl)cc2Cl)OC1=O` has a cell viability of 97.8%. Compound `O=C(NCCCCCCNC(=O)ONC1=CCCCC1)ONC1=CCCCC1` has a cell viability of 114%. With `O=C(C1CC1)N1CC[C@@H](C=C2NNC(=O)N2c2ccc(-c3ccc4occc4c3)cc2)C1` the cell viability was 82.4%. For `CCCCCCCCCCCC(=O)c1c(O)c(C(=O)CCCCCCCCCCC)c(O)c(C2CC(c3ccc(O)cc3)Oc3cc(O)ccc32)c1O` (centres undefined), the cell viability was 102%. `NC(=O)c1cccc(-c2cccc(OC(=O)NC3CCCCC3)c2)c1` [URB-597] showed a cell viability of 105%. For `O=C1O[C@H]([C@@H](O)CO)C(O)=C1O` [Vitamin C (ascorbate)], the cell viability was 103%.

Same assay, conditions: 1000 nM; 72 h
`O=C(O)C[C@@]1(O)C[C@@H](CCCCCCc2ccc(Cl)cc2Cl)OC1=O` gave a cell viability of 96.3%. Compound `O=C(NCCCCCCNC(=O)ONC1=CCCCC1)ONC1=CCCCC1` has a cell viability of 110%. Work on `O=C(C1CC1)N1CC[C@@H](C=C2NNC(=O)N2c2ccc(-c3ccc4occc4c3)cc2)C1` yielded a cell viability of 79%. Work on `CCCCCCCCCCCC(=O)c1c(O)c(C(=O)CCCCCCCCCCC)c(O)c(C2CC(c3ccc(O)cc3)Oc3cc(O)ccc32)c1O` (centres undefined) yielded a cell viability of 101%. `NC(=O)c1cccc(-c2cccc(OC(=O)NC3CCCCC3)c2)c1` [URB-597] was tested, and the cell viability was 104%. `O=C1O[C@H]([C@@H](O)CO)C(O)=C1O` [Vitamin C (ascorbate)] was tested, and the cell viability was 99.2%.

Same assay, conditions: 10000 nM; 72 h
With `O=C(O)C[C@@]1(O)C[C@@H](CCCCCCc2ccc(Cl)cc2Cl)OC1=O` the cell viability was 96.4%. `O=C(NCCCCCCNC(=O)ONC1=CCCCC1)ONC1=CCCCC1` gave a cell viability of 95.2%. `O=C(C1CC1)N1CC[C@@H](C=C2NNC(=O)N2c2ccc(-c3ccc4occc4c3)cc2)C1` gave a cell viability of 63.7%. In the case of `CCCCCCCCCCCC(=O)c1c(O)c(C(=O)CCCCCCCCCCC)c(O)c(C2CC(c3ccc(O)cc3)Oc3cc(O)ccc32)c1O` (centres undefined), the cell viability is reported as 89%. Compound `NC(=O)c1cccc(-c2cccc(OC(=O)NC3CCCCC3)c2)c1` [URB-597] has a cell viability of 115%. `O=C1O[C@H]([C@@H](O)CO)C(O)=C1O` [Vitamin C (ascorbate)] was tested, and the cell viability was 118%.

What follows are compounds tested on KG-1 in the same assay as above. Conditions: 1 nM; 72 h.
How it was run: as §1
Work on `O=C(O)C[C@@]1(O)C[C@@H](CCCCCCc2ccc(Cl)cc2Cl)OC1=O` yielded a cell viability of 100%. Work on `O=C(NCCCCCCNC(=O)ONC1=CCCCC1)ONC1=CCCCC1` yielded a cell viability of 90.4%. `O=C(C1CC1)N1CC[C@@H](C=C2NNC(=O)N2c2ccc(-c3ccc4occc4c3)cc2)C1` showed a cell viability of 95.4%. In the case of `CCCCCCCCCCCC(=O)c1c(O)c(C(=O)CCCCCCCCCCC)c(O)c(C2CC(c3ccc(O)cc3)Oc3cc(O)ccc32)c1O` (centres undefined), the cell viability is reported as 101%. In the case of `NC(=O)c1cccc(-c2cccc(OC(=O)NC3CCCCC3)c2)c1` [URB-597], the cell viability is reported as 102%. In the case of `O=C1O[C@H]([C@@H](O)CO)C(O)=C1O` [Vitamin C (ascorbate)], the cell viability is reported as 112%.

Same assay, conditions: 10 nM; 72 h
With `O=C(O)C[C@@]1(O)C[C@@H](CCCCCCc2ccc(Cl)cc2Cl)OC1=O` the cell viability was 110%. Compound `O=C(NCCCCCCNC(=O)ONC1=CCCCC1)ONC1=CCCCC1` has a cell viability of 122%. `O=C(C1CC1)N1CC[C@@H](C=C2NNC(=O)N2c2ccc(-c3ccc4occc4c3)cc2)C1` was tested, and the cell viability was 104%. `CCCCCCCCCCCC(=O)c1c(O)c(C(=O)CCCCCCCCCCC)c(O)c(C2CC(c3ccc(O)cc3)Oc3cc(O)ccc32)c1O` (centres undefined) was tested, and the cell viability was 117%. `NC(=O)c1cccc(-c2cccc(OC(=O)NC3CCCCC3)c2)c1` [URB-597] gave a cell viability of 103%. `O=C1O[C@H]([C@@H](O)CO)C(O)=C1O` [Vitamin C (ascorbate)] was tested, and the cell viability was 103%.

Same assay, conditions: 100 nM; 72 h
In the case of `O=C(O)C[C@@]1(O)C[C@@H](CCCCCCc2ccc(Cl)cc2Cl)OC1=O`, the cell viability is reported as 99.4%. `O=C(NCCCCCCNC(=O)ONC1=CCCCC1)ONC1=CCCCC1` gave a cell viability of 114%. With `O=C(C1CC1)N1CC[C@@H](C=C2NNC(=O)N2c2ccc(-c3ccc4occc4c3)cc2)C1` the cell viability was 112%. `CCCCCCCCCCCC(=O)c1c(O)c(C(=O)CCCCCCCCCCC)c(O)c(C2CC(c3ccc(O)cc3)Oc3cc(O)ccc32)c1O` (centres undefined) gave a cell viability of 128%. With `NC(=O)c1cccc(-c2cccc(OC(=O)NC3CCCCC3)c2)c1` [URB-597] the cell viability was 102%. `O=C1O[C@H]([C@@H](O)CO)C(O)=C1O` [Vitamin C (ascorbate)] was tested, and the cell viability was 118%.

Same assay, conditions: 1000 nM; 72 h
In the case of `O=C(O)C[C@@]1(O)C[C@@H](CCCCCCc2ccc(Cl)cc2Cl)OC1=O`, the cell viability is reported as 112%. `O=C(NCCCCCCNC(=O)ONC1=CCCCC1)ONC1=CCCCC1` was tested, and the cell viability was 92.8%. `O=C(C1CC1)N1CC[C@@H](C=C2NNC(=O)N2c2ccc(-c3ccc4occc4c3)cc2)C1` gave a cell viability of 90.3%. In the case of `CCCCCCCCCCCC(=O)c1c(O)c(C(=O)CCCCCCCCCCC)c(O)c(C2CC(c3ccc(O)cc3)Oc3cc(O)ccc32)c1O` (centres undefined), the cell viability is reported as 101%. Work on `NC(=O)c1cccc(-c2cccc(OC(=O)NC3CCCCC3)c2)c1` [URB-597] yielded a cell viability of 92.8%. In the case of `O=C1O[C@H]([C@@H](O)CO)C(O)=C1O` [Vitamin C (ascorbate)], the cell viability is reported as 97.5%.

Same assay, conditions: 10000 nM; 72 h
`O=C(O)C[C@@]1(O)C[C@@H](CCCCCCc2ccc(Cl)cc2Cl)OC1=O` gave a cell viability of 97.9%. Compound `O=C(NCCCCCCNC(=O)ONC1=CCCCC1)ONC1=CCCCC1` has a cell viability of 90.4%. Compound `O=C(C1CC1)N1CC[C@@H](C=C2NNC(=O)N2c2ccc(-c3ccc4occc4c3)cc2)C1` has a cell viability of 82.4%. With `CCCCCCCCCCCC(=O)c1c(O)c(C(=O)CCCCCCCCCCC)c(O)c(C2CC(c3ccc(O)cc3)Oc3cc(O)ccc32)c1O` (centres undefined) the cell viability was 81.8%. In the case of `NC(=O)c1cccc(-c2cccc(OC(=O)NC3CCCCC3)c2)c1` [URB-597], the cell viability is reported as 101%. In the case of `O=C1O[C@H]([C@@H](O)CO)C(O)=C1O` [Vitamin C (ascorbate)], the cell viability is reported as 106%.

What follows are compounds tested on K-562 in the same assay as above. Conditions: 1 nM; 72 h.
How it was run: as §1
With `O=C(O)C[C@@]1(O)C[C@@H](CCCCCCc2ccc(Cl)cc2Cl)OC1=O` the cell viability was 103%. With `O=C(NCCCCCCNC(=O)ONC1=CCCCC1)ONC1=CCCCC1` the cell viability was 97.9%. Work on `O=C(C1CC1)N1CC[C@@H](C=C2NNC(=O)N2c2ccc(-c3ccc4occc4c3)cc2)C1` yielded a cell viability of 95.4%. Compound `CCCCCCCCCCCC(=O)c1c(O)c(C(=O)CCCCCCCCCCC)c(O)c(C2CC(c3ccc(O)cc3)Oc3cc(O)ccc32)c1O` (centres undefined) has a cell viability of 97.9%.
